These results are taken from PubChem BioAssay (NCI).

Test systems include BT-549 breast; EKVX NSCLC; HL-60(TB) leukemia; RXF 393 renal; SF-268 CNS; MCF7 breast; SNB-75 CNS; CCRF-CEM leukemia; UACC-62 melanoma; SF-539 CNS; KM12 colon; MDA-MB-435; MALME-3M melanoma; SR leukemia; RPMI-8226 leukemia; A549 NSCLC; SK-MEL-28 melanoma.
Assay in all cases: NCI tumour cell line growth inhibition, 48 h

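Tested at 5 concentrations; 48 h exposure; 96-well plates; endpoints linearly interpolated, else capped at highest concentration. Definition used: TGI = concentration required for complete inhibition of growth.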

Take `CC(=O)O[C@H]1[C@@H](OC(C)=O)C(C)(C)/C=C/[C@H](C)C(=O)[C@@]2(OC(C)=O)C[C@@](C)(OC(C)=O)[C@H](OC(C)=O)[C@@H]2[C@H]2OC(=O)CC[C@@]2(OC(=O)c2ccccc2)[C@@H]1OCC(C)C`: the TGI with BT-549 breast, in the test with EKVX NSCLC, in the test with HL-60(TB) leukemia, in the test on RXF 393 renal, in the test on SF-268 CNS and in the test on MCF7 breast was more than 100 µM in each case. Further, the TGI in the test with SNB-75 CNS was 66.2 µM; in the test on CCRF-CEM leukemia it was more than 100 µM; in the test on UACC-62 melanoma, more than 100 µM; in the test on SF-539 CNS, more than 100 µM; in the test with KM12 colon it was more than 100 µM; with MDA-MB-435, more than 100 µM. This compound also yielded a TGI in the test with MALME-3M melanoma of more than 100 µM.

For the compound `CSCCC(NC(=O)OCc1ccccc1)NC(=O)OCc1ccccc1`, the TGI in the test on SR leukemia, with RPMI-8226 leukemia, in the test with A549 NSCLC, with SNB-75 CNS, in the test with SK-MEL-28 melanoma and in the test on MDA-MB-435 was more than 100 µM throughout.
